The values below come from patent US4564639A, “N-(2,6-Difluorobenzoyl-N-'-(2-fluoro-4-halophenyl)urea” (priority 1982, dated 1986).

Read-outs that look alike come from different tables or passages of the source.

The subject of data set [1] is Plutella xylostella. The data set can be described thus: Insecticidal effect against Plutella xylostella, sprayed radish seedlings. The data set is classed as in vivo. How it is done:
(§1) The mortalities in Test Examples 1 through 3 were calculated by the formula as mentioned below: [formula]
Insecticidal effect against Plutella xylostella
By the same procedure as in Example 9, the test compounds comprising the compounds of the present invention, i.e., Compound Nos. 1, 2, 3 and 4, and control compounds, i.e. Compounds A through G, were processed into wettable powder, and the aqueous solutions of 50 ppm in concentration were prepared therefrom by the same method as stated under (a) of Test Example 1. 20 ml of each of the aqueous solutions was sprayed on seedlings of radish (25 days after germination) grown in pots in accordance with the same method as described under (a) of Test Example 1. 2 hours after the spraying, two true leaves were cut away and contained in their respective ice cream cups (diameter of 6 cm and depth of 4 cm), into which 10 second-instar larvae of Plutella xylostella were released. After the larvae were released, the above-mentioned cups were placed in a room (25° C.), and a number of dead larvae after 48 hours was checked.

Data set [2] relates to Chilo suppressalis. The data set can be described thus: Insecticidal effect against Chilo suppressalis, dipped rice seedlings. The data set is classed as in vivo. The settings on record: 96 h, read-out: Mortality, % (spraying concn.). How it is done:
as §1
Insecticidal effect against Chilo suppressalis
By the same procedure as in Example 9, the test compounds comprising the compounds of the present invention, i.e. Compound Nos. 1, 2, 3 and 4, and control compounds, i.e. Compounds A through G, were processed into wettable powder, respectively, and the aqueous solutions of 0.4 and 2 ppm in concentration were prepared therefrom by the same method as stated under (a) of Test Example 1, whereby 10 rice seedlings (the height of a plant of 2 cm) were dipped in each of the insecticide solutions for 30 minutes. The seedlings thus treated were placed in the respective glass containers (diameter of 2 cm and depth of 5 cm), into which 10 third-instar larvae of Chilo suppressalis were released. The containers were covered with aluminum foil and allowed to stand in a room (25° C.), and a number of dead larvae 4 days after the larvae were released was checked.

For data set [3], the system named is Spodoptera litura. The data set can be described thus: Insecticidal effect against Spodoptera litura, soil treatment with granules (Table 1, III). The data set is classed as in vivo. The settings on record: 96 h, 250 mg of 2 weight % granules in soil of potted soybean, leaves cut 10 days after treatment, third-instar larvae, read-out: mortality (III, treatment amount). Here is the method: (§2) Insecticidal effect against Spodoptera litura
(c) Using the compounds of the present invention, i.e. Compound Nos. 1, 2, 3 and 4, and control compounds, i.e. Compounds A through G, as the test compounds, granules containing 2 weight % of the test compounds were prepared by the same procedure as in Example 13, and 250 and 500 mg of each of the granules were admixed, for the purpose of treatment, into the soil around roots of soybean plants grown in pots (diameter of 9 cm), respectively. The pots so treated were placed in a glass room (28° C.), and 10 days after the treatment, two true leaves were cut away and contained each in ice cream cups (diameter of 6 cm and depth of 4 cm). 10 third-instar larvae of Spodoptera litura were released into each of the ice cream cups, and a number of dead larvae was checked in accordance with the same method as the examination method as stated under (a).
as §1

Data set [4] can be described thus: Toxicity to fishes. The settings on record: in vivo; 72 hours later, orange-red killifish; read-out: TLm (the concentration at which 50% of the test fish dies). On the set-up: species or system Orizias latipes.
In data set [5] the test system is insect. Kind of data set: Insecticidal and ovicidal effect (general statement). The data set is classed as in vivo. To be noted: in words.
A short description of data set [6]: Oral toxicity in mice. The settings on record: mouse, in vivo.
Data set [7] deals with Spodoptera litura. Kind of data set: Insecticidal effect against Spodoptera litura, direct spraying on larvae (Table 1, II). The data set is classed as in vivo. The settings on record: read-out: mortality (II, spraying concn.). Here is the method: as §2
(b) By the same procedure as in Example 7, the test compounds comprising the compounds of the present invention, i.e. Compound Nos. 1, 2, 3 and 4, and control compounds, i.e. Compounds A through G, were each processed into emulsifiable concentrates, which were then diluted with water to produce the aqueous solutions (containing 0.03 % v/v of added spreader, Dyne® (produced by Takeda Chemical Industries, Japan)) containing 10 and 50 ppm of the test compounds, respectively. 20 ml of each of the aqueous solutions was sprayed on 10 third-instar larvae of Spodoptera litura placed in a cage of wire netting. 30 minutes after the spraying, the larvae were taken out of the cage of wire netting and placed in an ice cream cup (diameter of 6 cm and depth of 4 cm) containing soybean leaves, and a number of dead larvae was checked in accordance with the same method as the examination method as stated under (a) except that the larvae were allowed to stand for 48 hours in place of 96 hours.
as §1

In data set [8] the test system is Spodoptera litura. The data set can be described thus: Insecticidal effect against Spodoptera litura, leaf spraying (Table 1, I). To be noted: read-out: mortality (I, spraying concn.). The data set is classed as in vivo. How it is done: as §2
(a) The test compounds which comprise:
The above test compounds and control compounds were each processed into wettable powders in accordance with the same formula as in Example 9, followed by dilution with water to prepare emulsions containing 0.4 and 2 ppm, respectively. A spreader, Dyne® (produced by Takeda Chemical Industries, Japan), was added to the emulsions in the proportion of 0.03 volume % against the total volume, respectively, and 20 ml of each of the emulsions so obtained was sprayed by use of a spray gun (spraying pressure of 1 kg/cm^2) on seedlings (14 days after germination) of soybean grown in pots in a spray chamber. 2 hours after spraying, two true leaves were cut away and contained each in their respective ice-cream cup (diameter of 6 cm and depth of 4 cm), into which 10 third-instar larvae of Spodoptera litura was released. After the releasing of larvae, the cups were placed in a room (25° C.), and the number of larvae, […] was checked.
as §1

The test system of data set [9] is plant body. Kind of data set: Penetration into the plant body (general statement). To be noted: in words.
The mark [10] stands for this setting: 50 ppm sprayed on radish seedlings, second-instar larvae, 48 hours, read-out: Mortality, %.
[11] abbreviates: 0.4 ppm, rice seedlings dipped 30 minutes, third-instar larvae, 4 days.
Setting [12] is: 2 ppm, rice seedlings dipped 30 minutes, third-instar larvae, 4 days.
The mark [13] stands for this setting: 0.4 ppm, wettable powder emulsion sprayed on soybean seedlings, third-instar larvae, 96 hours.
[14] abbreviates: 2 ppm, wettable powder emulsion sprayed on soybean seedlings, third-instar larvae, 96 hours.
The mark [15] stands for this setting: emulsifiable concentrate solution sprayed on third-instar larvae, 48 hours.

As to `O=C(NC(=O)c1c(Cl)cccc1Cl)Nc1ccc(F)cc1F` [Compound F, N-2,6-dichlorobenzoyl-N'-2,4-difluorophenylurea], the mortality at 50 ppm in [1] (setting [10]) was found to be 20%. In addition, in [2] (setting [11]), the mortality at 0.4 ppm amounted to 0%. Besides, in data set [2] (setting [12]), the mortality at 2 ppm came out at 0%. In addition, the mortality at 250 mg in data set [3] worked out at 0%.
For the molecule `O=C(NC(=O)c1c(F)cccc1F)Nc1ccc(Cl)cc1F` [Compound No. 1, N-2,6-Difluorobenzoyl-N'-2-fluoro-4-chlorophenylurea], in data set [4], the LC50 at 72 h is not below 10 µg/mL. In addition, the “insecticidal and ovicidal effect” value in data set [5] is “excellent insecticidal and ovicidal effect”. For the same molecule, the LD50 in [6] is not below 3000 mg/kg. The mortality at 10 ppm in data set [7] (48 h) turned out to be 60%. Further, in data set [1] (setting [10]), the mortality at 50 ppm came out at 100%. For the same molecule, in data set [2], the mortality at 0.4 ppm was determined as 80% and the mortality at 2 ppm is 100%.
As for `O=C(NC(=O)c1c(F)cccc1F)Nc1ccc(Cl)c(Cl)c1` [Compound E, N-2,6-difluorobenzoyl-N'-3,4-dichlorophenylurea], the mortality at 0.4 ppm was found to be 20% in data set [8] (setting [13]) and 0% in [2] (setting [11]). Further, the figures for the mortality at 2 ppm in data set [8] (setting [14]) and in data set [2] (setting [12]) were 40% and 0%, respectively. Further, the mortality at 50 ppm in data set [1] (setting [10]) was determined as 40%. Besides, the mortality at 250 mg in data set [3] turned out to be 0%.
Regarding `O=C(NC(=O)c1c(Cl)cccc1Cl)Nc1ccc(Cl)cc1Cl` [Compound B, N-2,6-dichlorobenzoyl-N'-2,4-dichlorophenylurea], the mortality at 50 ppm in data set [1] (setting [10]) is 0%. Moreover, the mortality at 0.4 ppm in [2] (setting [11]) worked out at 0%. For the same molecule, in data set [2] (setting [12]), the mortality at 2 ppm is 0%. Further, the mortality at 250 mg in data set [3] was found to be 0%.
As to `O=C(NC(=O)c1c(F)cccc1F)Nc1ccc(I)cc1F` [Compound No. 4, N-2,6-difluorobenzoyl-N'-2-fluoro-4-iodophenylurea], the mortality at 0.4 ppm in data set [8] (in Glycine max, 96 h) was 100%; in [2], 75%. Moreover, the mortality at 2 ppm amounted to 100% in data set [8] (in Glycine max, 96 h) and 100% in data set [2]. Moreover, the LD50 in data set [6] is not below 3000 mg/kg. For the same molecule, in [7] (48 h), the mortality at 10 ppm worked out at 65%. The mortality at 50 ppm in data set [1] (setting [10]) is 100%. The mortality at 250 mg in data set [3] was found to be 55%.
In the case of `O=C(NC(=O)c1c(F)cccc1F)Nc1ccc(Br)cc1F` [Compound No. 2, N-2,6-difluorobenzoyl-N'-2-fluoro-4-bromophenylurea], the “insecticidal and ovicidal effect” value in data set [5] is “excellent insecticidal and ovicidal effect”. This molecule also gave an LD50 in data set [6] not below 3000 mg/kg. Moreover, in [7] (48 h), the mortality at 10 ppm came to 60%. In addition, in [1] (setting [10]), the mortality at 50 ppm stood at 100%. Also, in data set [2], the mortality at 0.4 ppm was found to be 70% and the mortality at 2 ppm is 100%. Also, in data set [3], the mortality at 250 mg was 80%.
Take `O=C(NC(=O)c1c(F)cccc1F)Nc1ccc(Cl)cc1` [Compound A, N-2,6-difluorobenzoyl-N'-4-chlorophenylurea]: the mortality at 0.4 ppm in data set [8] (setting [13]) came to 20%; in data set [2] (setting [11]), 5%. For the same molecule, the mortality at 2 ppm in data set [8] (setting [14]) stood at 30%; in data set [2] (setting [12]) it was 40%. Moreover, in data set [7] (10 ppm, emulsifiable concentrate solution sprayed on third-instar larvae, 48 hours), the mortality at 10 ppm was 0%. Moreover, the results for the mortality at 50 ppm in [7] (setting [15]) and in data set [1] (48 h) were 10% and 20%, respectively.
Take `O=C(NC(=O)c1c(F)cccc1F)Nc1ccc(Cl)c(F)c1` [Compound D, N-2,6-difluorobenzoyl-N'-3-fluoro-4-chlorophenylurea]: the mortality at 0.4 ppm worked out at 25% in [8] (setting [13]) and 10% in data set [2] (setting [11]). The mortality at 2 ppm in data set [8] (setting [14]) and in data set [2] (setting [12]) was 45% throughout. The mortality at 50 ppm in [7] (setting [15]) was 30%; in data set [1] (setting [10]) it was 45%. Moreover, the mortality at 250 mg in data set [3] worked out at 0%.
On to `O=C(NC(=O)c1c(Cl)cccc1Cl)Nc1ccc(Cl)c(F)c1` [Compound C, N-2,6-dichlorobenzoyl-N'-3-fluoro-4-chlorophenylurea], for which the mortality at 0.4 ppm in [8] (setting [13]) stood at 20%; in data set [2] (setting [11]), 0%. The values for the mortality at 2 ppm in [8] (setting [14]) and in [2] (setting [12]) were 30% and 0%, respectively. For the same molecule, the mortality at 50 ppm in data set [1] (setting [10]) was found to be 10%. Moreover, the mortality at 250 mg in data set [3] stood at 0%.
Regarding `O=C(NC(=O)c1c(F)cccc1F)Nc1ccc(F)cc1F` [Compound No. 3, N-2,6-difluorobenzoyl-N'-2,4-difluorophenyl urea], the mortality at 0.4 ppm in [8] (in Glycine max, 96 h) came to 80%. The same molecule registered an LD50 in data set [6] not below 3000 mg/kg. Also, the mortality at 10 ppm in data set [7] (48 h) was 35%. Also, the mortality at 50 ppm in data set [1] (setting [10]) amounted to 95%. For the same molecule, the “action to penetrate into the plant body” value in data set [9] is “excellent action to penetrate into the plant body”. Also, in data set [2], the mortality at 0.4 ppm was 40% and the mortality at 2 ppm was 80%. For the same molecule, in data set [3], the mortality at 250 mg is 100%.
In the case of `O=C(NC(=O)c1c(F)cccc1F)Nc1ccc(I)c(F)c1` [Compound G, N-2,6-difluorobenzoyl-N'-3-fluoro-4-iodophenylurea], the mortality at 0.4 ppm in data set [8] (setting [13]) amounted to 5%; in data set [2] (setting [11]), 10%. Besides, the mortality at 2 ppm in data set [8] (setting [14]) was determined as 35%; in data set [2] (setting [12]) it was 55%. Also, the figures for the mortality at 50 ppm in data set [7] (setting [15]) and in data set [1] (setting [10]) were 5% and 50%, respectively. Besides, the mortality at 250 mg in data set [3] turned out to be 0%.
